Laboratory results reported in US10519114B2, “Peptidomimetics and methods of using the same” (The Regents of the University of Michigan, priority 2016, dated 2019).

Experiments:
[1] = target: T1, rat μ (C6-MOR) opioid receptor (Rattus norvegicus, UniProt P33535); assay: Radioligand binding assay, [3H]diprenorphine displacement, MOR; conditions: displacement of 0.2 nM [3H]diprenorphine, C6-MOR membranes; mean ± standard error
T1 construct: expressed in transfected cells
Description: (§1) In Vitro Pharmacology-Cell Lines and Membrane Preparations. All tissue culture reagents were purchased from Gibco Life Sciences (Grand Island, N.Y., U.S.). C6-rat glioma cells stably transfected with a rat μ (C6-MOR) or rat δ (C6-DOR) opioid receptor20 and Chinese hamster ovary (CHO) cells stably expressing a human K (CHO-KOR) opioid receptor21 were used for all in vitro assays. Cells were grown to confluence at 37° C. in 5% CO2 in Dulbecco's modified Eagle medium containing 10% fetal bovine serum and 5% penicillin/streptomycin. Membranes were prepared by washing confluent cells three times with ice cold phosphate buffered saline (0.9% NaCl, 0.61 mM Na2HPO4, 0.38 mM KH2PO4, pH 7.4). Cells were detached from the plates by incubation in warm harvesting buffer (20 mM HEPES, 150 mM NaCl, 0.68 mM EDTA, pH 7.4) and pelleted by centrifugation at 200 g for 3 min. The cell pellet was suspended in ice-cold 50 mM Tris-HCl buffer, pH 7.4, and homogenized with a Tissue Tearor (Biospec Products, Inc., Bartlesville, Okla., U.S.) for 20 s at setting 4. The homogenate was centrifuged at 20 000 g for 20 min at 4° C., and the pellet was rehomogenized in 50 mM Tris-HCl with a Tissue Tearor for 10 s at setting 2, followed by recentrifugation. The final pellet was resuspended in 50 mM Tris-HCl and frozen in aliquots at […]. Protein concentration was determined via Bradford assay using bovine serum albumin as the standard.
(§2) Radioligand Binding Assays. Radioactive compounds were purchased from Perkin-Elmer (Waltham, Mass., U.S.). Opioid ligand binding assays were performed using competitive displacement of 0.2 nM [3H]diprenorphine (250 μCi, 1.85 TBq/mmol) by the test compound from membrane preparations containing opioid receptors. The assay mixture, containing membrane suspension (20 μg protein/tube) in 50 mM Tris-HCl buffer (pH 7.4), [3H]diprenorphine, and various concentrations of test peptide, was incubated at room temperature for 1 h to allow binding to reach equilibrium. The samples were rapidly filtered through Whatman GF/C filters using a Brandel harvester (Brandel, Gaithersburg, Md., U.S.) and washed three times with 50 mM Tris-HCl buffer. The radioactivity retained on dried filters was determined by liquid scintillation counting after saturation with EcoLume liquid scintillation cocktail in a Wallac 1450 MicroBeta (Perkin-Elmer, Waltham, Mass., U.S.). Nonspecific binding was determined using 10 μM naloxone. Inhibitory constant (Ki) values were calculated using nonlinear regression analysis to fit a logistic equation to the competition data using GraphPad Prism, version 5.01, for Windows (GraphPad Software Inc., La Jolla, Calif.). The results presented are the mean±standard error from at least three separate assays performed in duplicate.

[2] = target: T1, rat μ (C6-MOR) opioid receptor; assay: Stimulation of [35S]GTPγS binding, MOR; format: biochemical; conditions: for EC50: [35S]GTPγS binding, C6-MOR membranes, mean ± standard error; for Emax: [35S]GTPγS maximal stimulation compared with 10 μM standard DAMGO
Description: as §1
(§3) Stimulation of [^35S]GTPyS Binding. Agonist stimulation of [35S]guanosine 5′-O-[γ-thio]triphosphate ([^35S]GTPγS, 1250 Ci, 46.2 TBq/mmol) binding was measured as described previously Briefly, membranes (10-20 μg of protein/tube) were incubated 1 h at room temperature in GTPyS buffer (50 mM Tris-HCl, 100 mM NaCl, 5 mM MgCl2, pH 7.4) containing 0.1 nM [^35S]GTPγS, 30 μM guanosine diphosphate (GDP), and varying concentrations of test peptides. Peptide stimulation of [^35S]GTPyS was compared with 10 μM standard compounds [D-Ala^2,N-MePhe^4,Gly-ol]encephalin (DAMGO) at MOR, D-Pen^2,5-enkephalin (DPDPE) at DOR, or […] at KOR. The reaction was terminated by rapidly filtering through GF/C filters and washing 10 times with GTPyS buffer, and retained radioactivity was measured as described above. The results presented are the mean±standard error from at least three separate assays performed in duplicate; maximal stimulation was determined using nonlinear regression analysis with GraphPad Prism (GraphPad Software Inc., La Jolla, Calif.).

[3] = target: T2, rat δ (C6-DOR) opioid receptor (Rattus norvegicus, UniProt P33533); assay: Radioligand binding assay, [3H]diprenorphine displacement, DOR; conditions: displacement of 0.2 nM [3H]diprenorphine, C6-DOR membranes; mean ± standard error
T2 construct: expressed in transfected cells
T2 sequence (P33533 whole entry): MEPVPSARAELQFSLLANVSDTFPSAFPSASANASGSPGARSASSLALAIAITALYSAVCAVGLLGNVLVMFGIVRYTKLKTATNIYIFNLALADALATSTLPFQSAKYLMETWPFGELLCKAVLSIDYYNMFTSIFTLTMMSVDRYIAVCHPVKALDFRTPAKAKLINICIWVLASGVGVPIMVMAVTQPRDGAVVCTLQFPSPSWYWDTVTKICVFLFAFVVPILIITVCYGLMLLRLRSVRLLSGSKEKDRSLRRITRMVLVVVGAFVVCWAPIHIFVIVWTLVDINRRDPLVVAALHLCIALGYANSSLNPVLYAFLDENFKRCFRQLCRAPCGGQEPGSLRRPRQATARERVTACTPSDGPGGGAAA
Description: as §1, §2

[4] = target: T3, human κ (CHO-KOR) opioid receptor (Homo sapiens, UniProt P41145); assay: Radioligand binding assay, [3H]diprenorphine displacement, KOR; conditions: displacement of 0.2 nM [3H]diprenorphine, CHO-KOR membranes; mean ± standard error
T3 construct: expressed in transfected cells
T3 sequence (P41145 whole entry): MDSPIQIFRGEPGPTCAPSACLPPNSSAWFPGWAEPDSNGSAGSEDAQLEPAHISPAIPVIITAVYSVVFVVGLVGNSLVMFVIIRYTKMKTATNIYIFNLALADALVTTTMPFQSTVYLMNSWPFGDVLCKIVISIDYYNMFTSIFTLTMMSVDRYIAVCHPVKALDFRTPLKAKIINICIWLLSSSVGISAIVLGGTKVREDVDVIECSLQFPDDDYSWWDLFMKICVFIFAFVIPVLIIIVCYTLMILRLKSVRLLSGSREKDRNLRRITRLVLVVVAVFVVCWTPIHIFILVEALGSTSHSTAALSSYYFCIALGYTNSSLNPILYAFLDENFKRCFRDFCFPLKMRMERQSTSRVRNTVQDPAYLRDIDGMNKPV
Description: as §1, §2

[5] = target: T2, rat δ (C6-DOR) opioid receptor; assay: Stimulation of [35S]GTPγS binding, DOR; format: biochemical; conditions: for EC50 / EC50 (nm) DOR: [35S]GTPγS binding, C6-DOR membranes, mean ± standard error; for Emax / % stimulation DOR: [35S]GTPγS maximal stimulation compared with 10 μM standard DPDPE
Description: as §1, §3

[6] = target: T3, human κ (CHO-KOR) opioid receptor; assay: Stimulation of [35S]GTPγS binding, KOR; format: biochemical
Description: as §1, §3

T1 sequence (P33535 whole entry): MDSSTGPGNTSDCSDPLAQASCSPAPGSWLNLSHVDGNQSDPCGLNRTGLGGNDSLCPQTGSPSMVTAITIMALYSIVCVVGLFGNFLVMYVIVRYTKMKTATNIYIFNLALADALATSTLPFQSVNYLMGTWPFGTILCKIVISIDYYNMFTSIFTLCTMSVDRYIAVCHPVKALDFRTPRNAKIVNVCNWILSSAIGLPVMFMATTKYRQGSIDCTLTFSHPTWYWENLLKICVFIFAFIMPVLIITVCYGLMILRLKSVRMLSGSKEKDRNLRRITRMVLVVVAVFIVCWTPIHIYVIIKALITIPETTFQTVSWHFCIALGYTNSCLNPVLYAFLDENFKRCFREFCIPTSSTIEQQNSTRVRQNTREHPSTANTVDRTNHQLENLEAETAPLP

Cc1cc(O)cc(C)c1C[C@H](N)C(=O)N[C@@H]1CCNc2ccc(CC3Cc4ccc(O)cc4C3)cc21 (stereo partly shown) [Compound 1038] was tested, and the Ki [1] was 0.73 nM, the EC50 [2] was 11.9 ± 4.96 nM and the Emax [2] was 16.2 ± 3.43%. The Ki [3] was 19.9 ± 4.12 nM, the Ki [4] was 38.5 nM and the EC50 [5] was 261 nM. For the same compound, the Emax [5] was 10.5%.

Cc1cc(O)cc(C)c1C[C@H](N)C(=O)N[C@@H]1CCNc2c(Cc3ccccc3)cccc21 [Compound 1039] showed a Ki [1] of 57.7 nM, an EC50 [2] of 988 nM and an Emax [2] of 17.9%. The Ki [3] was 246 nM, the Ki [4] was 977 nM and the “EC50 (nm) DOR” value [5] was “dns”. The “% stimulation DOR” value [5] was “dns”.

With CC(=O)N1CC[C@@H](NC(=O)[C@@H](N)Cc2c(C)cc(O)cc2C)c2cc(Cc3ccccc3)cc(Cc3ccccc3)c21 [Compound 1042] the Ki [1] was 0.35 nM, the EC50 [2] was 14.7 nM and the Emax [2] was 75.1%. The Ki [3] was 0.35 nM, the Ki [4] was 12.1 nM and the EC50 [5] was 14.2 nM. For the same compound, the Emax [5] was 30.1%.

Compound Cc1cc(O)cc(C)c1C[C@H](N)C(=O)N[C@@H]1CCNc2ccc(CC3Cc4ccccc4C3C)cc21 (stereo partly shown) [Compound 1043] has a Ki [1] of 0.43 ± 0.18 nM, an EC50 [2] of 3.21 ± 1.25 nM and an Emax [2] of 92.4 ± 8.06%. For the same compound, the Ki [3] was 12 ± 1.17 nM, the Ki [4] was 35.7 ± 23.6 nM and the “EC50 (nm) DOR” value [5] was “dns”. For the same compound, the “% stimulation DOR” value [5] was “dns”.

Compound COC(=O)N1CC[C@@H](NC(=O)[C@@H](N)Cc2c(C)cc(O)cc2C)c2cc(CC3Cc4ccccc4C3)ccc21 [Compound 1044] has a Ki [1] of 0.09 ± 0.02 nM, an EC50 [2] of 0.4 nM and an Emax [2] of 82.5%. The Ki [3] was 0.26 ± 0.05 nM, the Ki [4] was 10.4 nM and the “EC50 (nm) DOR” value [5] was “dns”. The “% stimulation DOR” value [5] was “dns”.

In the case of COc1cc2c(cc1Cc1ccccc1)[C@H](NC(=O)[C@@H](N)Cc1c(C)cc(O)cc1C)CCN2 [Compound 1045], the Ki [1] is reported as 0.26 ± 0.09 nM, the EC50 [2] is reported as 8.03 ± 3.15 nM and the Emax [2] is reported as 98.4 ± 2.54%. The Ki [3] was 2.84 ± 0.78 nM, the Ki [4] was 8.51 nM and the EC50 [5] was 135 nM. For the same compound, the Emax [5] was 32.5%.

Cc1cc(O)cc(C)c1C[C@H](N)C(=O)N[C@@H]1CCNc2cc(O)c(Cc3ccccc3)cc21 [Compound 1046] gave a Ki [1] of 0.33 ± 0.14 nM, an EC50 [2] of 9.86 ± 3.79 nM and an Emax [2] of 94.7 ± 4.19%. It also gave a Ki [3] of 2.74 ± 0.05 nM, a Ki [4] of 15.1 nM and an EC50 [5] of 237 nM. It also gave an Emax [5] of 20.3%.

For Cc1cc(O)cc(C)c1C[C@H](N)C(=O)N[C@@H]1CCNc2ccc(Cn3n[n+]([O-])c4ccc(Cl)cc43)cc21 [Compound 1047], the Ki [1] was 0.35 ± 0.05 nM, the EC50 [2] was 3.45 ± 0.67 nM and the Emax [2] was 81.6 ± 1.48%. The Ki [3] was 3.54 ± 0.83 nM, the Ki [4] was 22.5 ± 8.83 nM and the “EC50 (nm) DOR” value [5] was “dns”. For the same compound, the “% stimulation DOR” value [5] was “dns”.

CCCc1cc(Br)cc2c1NCC[C@H]2NC(=O)[C@@H](N)Cc1c(C)cc(O)cc1C [Compound 1058] showed a Ki [1] of 21.7 ± 8.06 nM, an EC50 [2] of 859 nM and an Emax [2] of 12.6%. The “EC50 (nm) KOR” value ([6]; [35S]GTPγS binding, CHO-KOR membranes, mean ± standard error) was “dns”, the “% stimulation KOR” value ([6]; [35S]GTPγS maximal stimulation compared with 10 μM standard U-69,593) was “dns” and the Ki [3] was 45.9 ± 22.6 nM. For the same compound, the Ki [4] was 208 ± 16 nM.

In the case of Cc1cc(O)cc(C)c1C[C@H](N)C(=O)N[C@@H]1CCNc2c(C(=O)Nc3ccccc3)cc(Cc3ccccc3)cc21 [Compound 1103], the Ki [1] is reported as 0.36 nM, the EC50 [2] is reported as 27.3 nM and the Emax [2] is reported as 62.7%. For the same compound, the Ki [3] was 2.17 nM, the Ki [4] was 29.4 nM and the “EC50 (nm) DOR” value [5] was “dns”. The “% stimulation DOR” value [5] was “dns”.

Cc1cc(O)cc(C)c1C[C@H](N)C(=O)N[C@@H]1CCCc2ccc(Oc3ccccc3)cc21 [Compound 1118] showed a Ki [1] of 0.33 ± 0.09 nM, an EC50 [2] of 43 ± 14 nM and an Emax [2] of 41.9 ± 8.97%. The Ki [3] was 13 ± 1.01 nM, the Ki [4] was 38.5 ± 5.39 nM and the Emax [5] was 1.65 ± 1.65%.
